Experimental data published in patent US20080248487A1, “MODULATION OF PROTEIN FUNCTIONALITIES” (priority 2007, published 2008).

Target: T1, p38 MAP kinase (Homo sapiens, UniProt Q16539)
T1 construct: made in house; host or cells: E. coli
Experiment: P38 MAP kinase binding assay (competition with fluorescent probe SKF 86002)
Details: time-dependent if the IC50 values decrease with the reaction time (more than two-fold in four hours)
Protocol: Thus, the ability of a small molecule to block fluoroprobe binding provides an experimental readout of binding to the switch control pocket. […] The reaction was initiated by addition of the enzyme. […] By comparison of rfu (relative fluorescence unit) values with that of a control (in the absence of small molecule modulators), the percentage of inhibition at each concentration of the small molecules were calculated. IC50 values for the small molecule modulators were calculated from the % inhibition values obtained at a range of concentrations of the small molecule modulators using Prism. When time-dependent inhibition was assessed, the plate was read at multiple reaction times such as 0.5, 1, 2, 3, 4 and 6 hours. The IC50 values were calculated at each time point. An inhibition was assigned as time-dependent if the IC50 values decrease with the reaction time (more than two-fold in four hours).

T1 sequence (Q16539 whole entry): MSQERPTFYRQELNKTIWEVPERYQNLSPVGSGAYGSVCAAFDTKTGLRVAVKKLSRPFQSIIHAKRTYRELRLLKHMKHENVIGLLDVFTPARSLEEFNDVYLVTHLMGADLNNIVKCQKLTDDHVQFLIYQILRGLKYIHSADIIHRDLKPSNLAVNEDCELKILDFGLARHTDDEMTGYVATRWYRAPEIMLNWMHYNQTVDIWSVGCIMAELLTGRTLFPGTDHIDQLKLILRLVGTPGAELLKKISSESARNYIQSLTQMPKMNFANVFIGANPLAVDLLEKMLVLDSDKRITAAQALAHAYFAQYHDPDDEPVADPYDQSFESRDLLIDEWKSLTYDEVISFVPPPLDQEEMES

| Time-dependent | SMILES |
| --- | --- |
| No | CC1(C(=O)O)CC2(C)CC(C)(C1)C(=O)N(Cc1cccc(-n3nc(C(C)(C)C)cc3NC(=O)Nc3cccc4ccccc34)c1)C2=O (stereo not shown) [Example 11] |
| No | CC1(C(=O)O)CC2(C)CC(C)(C1)C(=O)N(Cc1cccc(-n3nc(C(C)(C)C)cc3NC(=O)Nc3ccc(Cl)cc3)c1)C2=O (stereo not shown) [Example 12] |
| Yes | CC(C)(C)c1cc(NC(=O)Nc2cccc3ccccc23)n(-c2cccc(CC(=O)N3CCOCC3)c2)n1 [Example 21, 1-{3-tert-butyl-1-[3-(2-morpholino-2-oxoethyl)phenyl]-1H-pyrazol-5-yl}-3-(naphthalene-1-yl)urea] |
| No | CC(C)(C)c1cc(NC(=O)Nc2cccc3ccccc23)n(-c2ccc(CN)cc2)n1 [Example 45, 1-{3-tert-butyl-1-[4-(aminomethyl)phenyl]-1H-pyrazol-5-yl}-3-(naphthalen-1-yl)urea] |
